These results are taken from ChEMBL document CHEMBL1201862, “PubChem BioAssay data set” (2004).

Some test systems named below: SF-295; NCI-H460; MDA-MB-231; ACHN; UACC-257; RPMI-8226; Malme-3M; HL-60; HCT-116; SF-268; HCC 2998; SK-MEL-2; DU-145; OVCAR-4; HOP-62; KM12; UACC-62; NCI-H23; SF-539.
Assay in all cases: DTP human tumour cell line panel, 48 h

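Interpolation was linear, between the two tested concentrations surrounding the appropriate level; five concentrations were tested over 48 hours in 96-well plates. GI50 is the concentration that inhibits growth by half.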 The source made the active and inactive calls. No stated cut-off is given here; in the data, active = GI50 up to about 1.1 µM and inactive = higher.

As to `O=C(O)CSc1ccc([N+](=O)[O-])cc1[N+](=O)[O-]`, the GI50 in the test on SF-295, in the test with NCI-H460, in the test on MDA-MB-231, with ACHN, with UACC-257 and in the test with RPMI-8226 was > 100 µM (inactive) each time. In addition, the GI50 in the test on Malme-3M, with HL-60, in the test with HCT-116, in the test with SF-268, in the test with HCC 2998 and in the test with SK-MEL-2 was > 100 µM (inactive) each time. In addition, the GI50 with DU-145, in the test on OVCAR-4, with HOP-62, in the test on KM12, in the test with UACC-62 and in the test on NCI-H23 was > 100 µM (inactive) throughout.
With `O=C1NC(=O)C(CC(C(=O)C(=O)Nc2ccccc2Cl)C(=O)c2ccc3ccccc3c2)C(=O)N1` (stereo not given), the GI50 in the test on SF-295, in the test on NCI-H460, in the test on MDA-MB-231, in the test on ACHN, with UACC-257 and in the test with HL-60 was > 100 µM (inactive) in each case. Also, the GI50 in the test with HCT-116, in the test on SF-268, with HCC 2998, in the test with SK-MEL-2, in the test with DU-145 and with OVCAR-4 was > 100 µM (inactive) each time. Moreover, the GI50 with HOP-62, in the test with KM12, in the test on SF-539, in the test with UACC-62 and with NCI-H23 was > 100 µM (inactive) in each case.
On to `O=c1c2cc(I)ccc2nc(S)n1Cc1ccccc1`, for which the GI50 (in general, the concentration at which growth is held to half of that of the control) was 9.02 µM (inactive) with SF-295; 6.93 µM (inactive) with NCI-H460; 13.1 µM (inactive) in the test with MDA-MB-231; 4.49 µM (inactive) in the test on ACHN; 11.7 µM (inactive) in the test on UACC-257; 6.61 µM (inactive) with RPMI-8226. Further, the GI50 with HL-60 was 6.84 µM (inactive); in the test on HCT-116, 9.14 µM (inactive); in the test with SF-268, 11 µM (inactive); in the test on HCC 2998, 17.1 µM (inactive); in the test with SK-MEL-2 it was 14.6 µM (inactive); with DU-145 it was 20.2 µM (inactive). Moreover, the GI50 in the test with OVCAR-4 is 9.71 µM (inactive); in the test with HOP-62, 13.3 µM (inactive); in the test with KM12, 9.08 µM (inactive); in the test on SF-539 it was 15.5 µM (inactive); with UACC-62, 19.6 µM (inactive); in the test on NCI-H23 it was 7.59 µM (inactive).
Turning to `CC1(C)C=[N+]([O-])C(C)(C)N1O`, the GI50 in the test on SF-295, in the test with NCI-H460, with MDA-MB-231, with ACHN, in the test on UACC-257 and in the test with RPMI-8226 was > 10 µM (inactive) each time. The GI50 in the test on Malme-3M, in the test with HL-60, in the test on HCT-116, in the test on SF-268, with HCC 2998 and in the test on SK-MEL-2 was > 10 µM (inactive) in each case. Also, the GI50 in the test on DU-145, in the test with OVCAR-4, with HOP-62, with KM12 and with NCI-H23 was > 10 µM (inactive) throughout.
As to `CC1C2CC(C(S(=O)(=O)N3CCOCC3)/C2=N\O)C1(C)C` (stereo not given), the GI50 in the test on SF-295, with NCI-H460, in the test with MDA-MB-231, in the test on ACHN, with UACC-257 and with RPMI-8226 was > 100 µM (inactive) each time. Also, the GI50 in the test on Malme-3M, in the test with HL-60, with HCT-116, in the test with SF-268, in the test with HCC 2998 and in the test with DU-145 was > 100 µM (inactive) each time. Further, the GI50 in the test with OVCAR-4, in the test on HOP-62, in the test with KM12, in the test on SF-539, in the test on UACC-62 and in the test on NCI-H23 was > 100 µM (inactive) each time.
Consider `CC1=NN=C(N)N/C1=C/C(Sc1ccc(Cl)cc1)c1cccs1` (stereo not given), for which the GI50 with SF-295 is 11.7 µM (inactive); in the test with NCI-H460 it was 13.6 µM (inactive); with MDA-MB-231 it was > 10 µM (inactive); in the test on ACHN, 12.9 µM (inactive); in the test on UACC-257, 18.3 µM (inactive); with RPMI-8226, 12.2 µM (inactive). Also, the GI50 is 13.1 µM (inactive) in the test on Malme-3M; 4.07 µM (inactive) in the test on HL-60; 13.6 µM (inactive) with HCT-116; 10.6 µM (inactive) with SF-268; 12.4 µM (inactive) in the test on HCC 2998; 13.4 µM (inactive) in the test on SK-MEL-2. In addition, the GI50 with DU-145 is 23.1 µM (inactive); in the test on OVCAR-4, 16.5 µM (inactive); with HOP-62 it was 12.5 µM (inactive); in the test on KM12 it was 11.1 µM (inactive); in the test with UACC-62, > 10 µM (inactive); with NCI-H23, 13.9 µM (inactive).
For `C=CCNC(=O)CN(CC(=O)O)C1CCCCC1N(CC(=O)O)CC(=O)O` (stereo not given), the GI50 in the test with SF-295, in the test with NCI-H460, in the test on MDA-MB-231, with ACHN, with UACC-257 and in the test on RPMI-8226 was > 100 µM (inactive) each time. For the same compound, the GI50 in the test with Malme-3M, with HL-60, in the test on HCT-116, in the test with SF-268, in the test with HCC 2998 and with DU-145 was > 100 µM (inactive) throughout. In addition, the GI50 in the test with OVCAR-4, with HOP-62, in the test on KM12, in the test with SF-539, in the test with UACC-62 and in the test on NCI-H23 was > 100 µM (inactive) throughout.
`C=C1C(=O)O[C@H]2[C@H]3O[C@@H](C[C@@H]12)[C@@]1(C)CC[C@H](O1)[C@H](C)CCC[C@H]3C`: the GI50 in the test on SF-295 was 4.82 µM (inactive); in the test on NCI-H460, 1.76 µM (inactive); in the test with MDA-MB-231, 1.65 µM (inactive); in the test on ACHN it was 1.51 µM (inactive); in the test with UACC-257, 1.91 µM (inactive); with RPMI-8226, 0.512 µM (active). Besides, the GI50 in the test with Malme-3M is 1.72 µM (inactive); with HL-60, 0.237 µM (active); with HCT-116, 1.04 µM (active); in the test with SF-268, 1.67 µM (inactive); with HCC 2998, 1.28 µM (inactive); in the test on SK-MEL-2, 2.09 µM (inactive). Besides, the GI50 in the test with DU-145 was 1.52 µM (inactive); in the test on OVCAR-4, 1.58 µM (inactive); in the test on HOP-62, 4.74 µM (inactive); in the test on KM12 it was 2.18 µM (inactive); in the test with UACC-62, 1.81 µM (inactive); in the test with NCI-H23, 1.75 µM (inactive).
`C[C@H]1C[C@H]2[C@@H]3CCC4=CC(=O)C=C[C@]4(C)C3=CC[C@]2(C)[C@@]1(O)C(=O)CO`: the GI50 in the test with SF-295 was > 100 µM (inactive); in the test with NCI-H460, > 100 µM (inactive); in the test with MDA-MB-231, > 100 µM (inactive); in the test with ACHN, > 100 µM (inactive); in the test on UACC-257, > 100 µM (inactive); in the test on RPMI-8226, 37.2 µM (inactive). In addition, the GI50 was > 100 µM (inactive) in the test on Malme-3M; 42 µM (inactive) in the test with HL-60; > 100 µM (inactive) with HCT-116; > 100 µM (inactive) in the test with SF-268; > 100 µM (inactive) in the test on HCC 2998; > 100 µM (inactive) in the test on SK-MEL-2. The GI50 was > 100 µM (inactive) in the test on DU-145; > 100 µM (inactive) with OVCAR-4; > 100 µM (inactive) with HOP-62; > 100 µM (inactive) in the test with KM12; > 100 µM (inactive) in the test on UACC-62; 95.1 µM (inactive) in the test on NCI-H23.
Turning to `O=c1c(C(c2cccc(C(c3c(O)oc4ccccc4c3=O)c3c(O)oc4ccccc4c3=O)c2)c2c(O)oc3ccccc3c2=O)c(O)oc2ccccc12`, the GI50 was 41.5 µM (inactive) in the test on SF-295; 75.2 µM (inactive) with NCI-H460; 20.8 µM (inactive) in the test with MDA-MB-231; 36.6 µM (inactive) with ACHN; 69 µM (inactive) in the test on UACC-257; 33.2 µM (inactive) in the test with RPMI-8226. The GI50 in the test with HL-60 was 21.7 µM (inactive); in the test with HCT-116, 25.1 µM (inactive); with SF-268 it was 28.4 µM (inactive); in the test with HCC 2998, 15.6 µM (inactive); with SK-MEL-2, > 100 µM (inactive); with DU-145 it was 39.4 µM (inactive). Moreover, the GI50 was 30.3 µM (inactive) in the test with HOP-62; 30.5 µM (inactive) in the test on KM12; 19.8 µM (inactive) with SF-539; 29 µM (inactive) with UACC-62; 22.8 µM (inactive) with NCI-H23.
On to `O=C1CC(c2ccc(Cl)cc2)Oc2ccccc21` (stereo not given), for which the GI50 in the test with SF-295 is 24.4 µM (inactive); with NCI-H460 it was 19.8 µM (inactive); with MDA-MB-231, 28.2 µM (inactive); with ACHN, 36.1 µM (inactive); in the test with UACC-257, 40.3 µM (inactive); in the test on RPMI-8226, 3.96 µM (inactive). Moreover, the GI50 in the test with HL-60 is 10.7 µM (inactive); in the test with HCT-116 it was 37.3 µM (inactive); with SF-268, 28.4 µM (inactive); in the test with HCC 2998 it was 25.6 µM (inactive); in the test on SK-MEL-2, 18.8 µM (inactive); in the test on DU-145, 69 µM (inactive). Also, the GI50 in the test on OVCAR-4 is 43.4 µM (inactive); in the test on HOP-62, 19.6 µM (inactive); in the test with KM12, 12.9 µM (inactive); with SF-539 it was 13.4 µM (inactive); with UACC-62, 20.6 µM (inactive); in the test with NCI-H23 it was 15.2 µM (inactive).
